Laboratory results from paper PMC11435220, “Anticancer Activity of Imidazolyl Gold(I/III) Compounds in Non-Small Cell Lung Cancer Cell Lines” (Pharmaceuticals, 2024).

Columns and labels:
H1993 = test: MTT viability assay, H1993; type: cell-based, human; settings: mean ± span, 48 h treatment, cell line without KRAS mutation
Method: (§1) NSCLC cell lines were obtained from the Hamon Center for Therapeutic Oncology Research (UT Southwestern Medical Center). IMR-90 human lung fibroblasts were from ATCC (CC-186). All cell lines were maintained and treated in RPMI medium (Cytiva (Shanghai, China), #SH30027), supplemented with 10% heat-inactivated FBS (Millipore Sigma (Darmstadt, Germany), F0394).
(§2) 5000–10,000 cells/0.1 mL/well were seeded in 96-well plates to achieve 70% confluence after 24 h. All drug stock solutions were prepared fresh in DMSO at a concentration of 10 mM. The day after cell plating, we added 0.1 mL of medium containing the appropriate drug dilutions. After 48 h of treatment, 10 μL of MTT solution (5 mg/mL) was added to each well. After 4 h incubation, the medium was aspirated, and the formazan salts dissolved in 200 μL DMSO/well for 10 min at 37 °C. The absorbance was read at 570 nm (OD 570 nm). Data are represented as mean ± SD of two independent experiments.
(§3) Statistical and data analysis was performed using GraphPad Prism (v10). IC50 values were calculated using a three-parameter non-linear regression model with log(inhibitor) vs. response. For the TxrR activity statistics, the groups were compared using a two-way ANOVA followed by Dunnett’s multiple comparisons with alpha = 0.05. The correlation between IC50 values and TxrR activity was achieved using Pearson correlation with alpha = 0.05.

A549 = test: MTT viability assay, A549; type: cell-based, human; settings: mean ± span, 48 h treatment, cell line with KRAS mutation
Method: as §1, §2, §3

[1] = system: human NSCLC cell lines with KRAS mutations; test: MTT assay, average across NSCLC cell lines with KRAS mutations; type: cell-based; settings: 48 h, read-out: IC50 * averaged values
Method: as §1, §2, §3

[2] = system: TrxR in H522 cell lysates; test: Thioredoxin reductase activity in lysates of treated H522 cells; type: cell-based, human; settings: for Mean Diff. TrxR activity vs. veh: H522 lysate, 24 h treatment at 5 μM
Method: (§4) The enzymatic activity of TrxR in the A549 and H522 cell lysates was measured using the TrxR assay Kit (Abcam ab83463) following the manufacturer’s instructions. This kit is based on the TxrR-mediated reduction of the colorless DTNB into TNB2—(yellow). Briefly, cells were plated to reach 70% confluence on a 100-mm dish in one day. They were treated with 5 μM of the gold compounds or the equivalent quantity of DMSO for 24 h. Then, cells were washed in PBS 1X, detached, and lysed in 100 μL of cold TrxR assay buffer supplemented with the Proteinase Inhibitor Cocktail. 20 μg and 40 μg of total proteins were used for the A549 and the H522, respectively. The DTNB substrate was added to samples with or without TrxR inhibitor (provided with the kit) in 96-well plates. The OD412 was measured soon after the substrate addition (A1) and then after 25, 60, 90, and 110 min (An) at 25 °C using a FLUOstar Omega Microplate Reader (BGM Labtech, Chicago, IL, USA). Data analysis was performed following the manufacturer’s instructions. The OD of TNB2, generated by TrxR in every condition, is:ΔA412 nm = (AnAB − AnINH) − (AB − A1INH) where AB is the assay buffer, and INH is the inhibitor. The TrxR activity is:(2) ΔB/Tn−T1×mg of protein lysate×sample dilution factor=(nmol/min)/mg=mU/mg where ΔB is the TNB amount calculated applying ΔA412 nm to TNB standard curve (in nmol), T1 is the time of the first reading (A1AB, and A1INH) (in min), Tn is the time of the second reading (AnAB and AnINH) (in min). The residual TxrR activity (%) was calculated by normalizing the TxrR activity for each compound with the matching vehicle values at every n time point.
as §3

[3] = system: TrxR in A549 cell lysates; test: Thioredoxin reductase activity in lysates of treated A549 cells; type: cell-based, human; settings: for Mean Diff. TrxR activity vs. veh: A549 lysate, 24 h treatment at 5 μM
Method: as §4, §3

[4] = Solution stability by UV-visible spectra over time; type: physicochemical; settings: UV-visible spectra over time; DMSO, methanol, PBS buffered solutions
Method: Stability studies were led by acquiring UV−visible spectra of 100 µM DMSO or methanol solutions of compounds 1∓8 over time (Figures S19–S29 in Supplementary Materials). […] The stability of NHC-AuX3 complexes (with X = Cl, compounds 1 and 2, with X = Br, compounds 5 and 6) was affected by the nature of both the substituents on the imidazolyl ligand and of the halide, showing a small decrease of the UV bands maxima in an hour. By analyzing the spectral data of compounds 1 and 2, a percent concentration reduction of about 4–5% was estimated within an hour, grading them eligible for biological tests. The partial instability may be attributed to the formation of cationic bis-carbeneAuCl2 species (Equation (1)), with the [bis-carbeneAuX2]^+ and the respective AuX2^−; these ions were actually detected as positive and negative ions in the ESI-MS spectra (see Figures S12 and S13). […] Additionally, the (+)ESI MS spectrum of the acetonitrile solution of compound 6 is particularly rich in positive ions (Figure S16). As concerns the mono-/bis-carbene formation, it is likely initiated by the large trans effect of the carbene ligands, which induces the chemical lability on the trans halide, triggers […], the formation of bis-carbeneAu(III) species, and AuX2^− or AuX4^− anions:2[NHC-AuX3] ⇔ [[(NHC)2AuX2] [AuX2^−] + 2X(1) […]
The stability of the samples 1-8 in DMSO solution was assayed by UV-visible spectroscopy. Spectra were acquired using the Shimadzu UV-2700i spectrophotometer, equipped with the Shimadzu CPS-100 Peltier, at 293 K. Unless diversely specified, 100 µM DMSO solutions of the 1-8 compounds were prepared and spectra were acquired each 10 minutes for a total of 60 minutes. The spectra obtained are reported as following.
Figure S19. UV-Visible Spectra acquired for complex 1.
Figure S20. UV-Visible Spectra acquired for complex 2. […]

Clc1n[c]([Au-][P+](c2ccccc2)(c2ccccc2)c2ccccc2)n(Cc2ccccc2)c1Cl [Compound 7]
IC50 (H1993): 1.8 ± 0.96 µM
IC50 (A549): 16 ± 1.3 µM
IC50 [1]: 10 µM
Mean Diff. TrxR activity vs. veh ([2]; reading at 25 min): −57.19%
Mean Diff. TrxR activity vs. veh ([2]; reading at 60 min): −91.41%
Mean Diff. TrxR activity vs. veh ([2]; reading at 90 min): −90.61%
Mean Diff. TrxR activity vs. veh ([2]; reading at 110 min): −89.86%
Mean Diff. TrxR activity vs. veh ([3]; reading at 25 min): −59.2%
Mean Diff. TrxR activity vs. veh ([3]; reading at 60 min): −44.4%
Mean Diff. TrxR activity vs. veh ([3]; reading at 90 min): −56.35%
Mean Diff. TrxR activity vs. veh ([3]; reading at 110 min): −53.76%
stability in solution [4]: highest stability in solution

Cn1cc[n+](C)[c]1[Au-2]([Cl])[P+](c1ccccc1)(c1ccccc1)c1ccccc1 [Compound 8]
IC50 (H1993): 1.8 ± 1.05 µM
IC50 (A549): 9.1 ± 1.2 µM
IC50 [1]: 11 µM
TrxR activity reduction / inhibition ([2]; H522, 24 h treatment, stated for both cell lines): more than 80%
Mean Diff. TrxR activity vs. veh ([2]; reading at 25 min): −81.92%
Mean Diff. TrxR activity vs. veh ([2]; reading at 60 min): −82.1%
Mean Diff. TrxR activity vs. veh ([2]; reading at 90 min): −91.89%
Mean Diff. TrxR activity vs. veh ([2]; reading at 110 min): −88.27%
TrxR activity reduction / inhibition ([3]; A549, 24 h treatment, stated for both cell lines): more than 80%
Mean Diff. TrxR activity vs. veh ([3]; reading at 25 min): −86.87%
Mean Diff. TrxR activity vs. veh ([3]; reading at 60 min): −80.79%
Mean Diff. TrxR activity vs. veh ([3]; reading at 90 min): −82.25%
Mean Diff. TrxR activity vs. veh ([3]; reading at 110 min): −82.25%
stability in solution [4]: highest stability in solution
